Experimental data from US6825182B2, “17α-fluoroalkyl-11β-benzaldoxime steroids, process for their production, pharmaceutical preparations that contain these steroids as well as their use for the production of pharmaceutical agents” (Schering AG, priority 2002, dated 2004).

Legend:
Glucocorticoid Receptor = assay: Receptor bond: relative molar binding affinity to the glucocorticoid receptor; details: Dexamethasone = 100%
Progesterone Receptor = assay: Receptor bond: relative molar binding affinity to the progesterone receptor; details: Progesterone = 100%
Description: (§1) The methods for the in-vitro tests and the in-vivo tests with the compounds according to the invention can be found in EP 0 411 733 A2 and DE 43 32 283 A1: […]

tumor models = details: in vivo; cited from earlier work
[1] = cited from earlier work
pregnancy in rats = assay: Early abortive action in rats after subcutaneous administration from the 5th to 7th day of pregnancy; type: in vivo, rat; details: s.c., day 5-7 of pregnancy; for Complete Inhibition of Pregnancy (empty uteri) N#/N: nonpregnant females/paired females
Description: as §1

Compound	Relative Molar Binding-affinity RBA (%) to the Glucocorticoid Receptor (Glucocorticoid Receptor)	Relative Molar Binding-affinity RBA (%) to the Progesterone Receptor (Progesterone Receptor)	Complete Inhibition of Pregnancy (empty uteri) (pregnancy in rats; 0.3 mg/animal/day)	Complete Inhibition of Pregnancy (empty uteri) N#/N (pregnancy in rats; 0.3 mg/animal/day)	Complete Inhibition of Pregnancy (empty uteri) (pregnancy in rats; 1 mg/animal/day)	Complete Inhibition of Pregnancy (empty uteri) N#/N (pregnancy in rats; 1 mg/animal/day)	also measured
CN(C)c1ccc([C@H]2C[C@]3(C)[C@@H](CC[C@]3(O)CCCO)[C@@H]3CCC4=CC(=O)CCC4=C32)cc1 [Onapristone, reference compound]	39%	22%					
CC12CC(c3ccc(C=NO)cc3)C3=C4CCC(=O)C=C4CCC3C1CCC2(O)C(F)(F)F (stereo not drawn) [Compound No. 2, 4-[17β-Hydroxy-17α-(1,1,1-trifluoromethyl)-3-oxoestra-4,9-dien-11β-yl]benzaldehyde-1(Z)-oxime]	113%	123%					
CC(=O)c1ccc([C@H]2C[C@@]3(C)[C@@H](CC[C@@]3(O)C(F)(F)C(F)(F)F)[C@@H]3CCC4=CC(=O)CCC4=C32)cc1 [ZK 230 211, 11β-(4-Acetylphenyl)-17β-hydroxy-17α-(1,1,2,2,2-pentafluoroethyl)-estra-4,9-dien-3-one, reference compound]			0	0/6	75	3/4	Antiproliferative activity in the tumor models (in words) (tumor models): antiproliferative activity; Receptor selectivity (in words) [1]: high receptor selectivity; Complete Inhibition of Pregnancy (empty uteri) (pregnancy in rats; 3 mg/animal/day): 100; Complete Inhibition of Pregnancy (empty uteri) N#/N (pregnancy in rats; 3 mg/animal/day): 4/4
CC12CC(c3ccc(C=NO)cc3)C3=C4CCC(=O)C=C4CCC3C1CCC2(O)C(F)(F)F (stereo not drawn) [Example 1, 4-[17β-Hydroxy-17α-(trifluoromethyl)-3-oxoestra-4,9-dien-11β-yl]benzaldehyde-(1E)-oxime]	163%	272%	100	4/4	100	4/4	Complete Inhibition of Pregnancy (empty uteri) (pregnancy in rats; 0.03 mg/animal/day): 0; Complete Inhibition of Pregnancy (empty uteri) N#/N (pregnancy in rats; 0.03 mg/animal/day): 0/6; Complete Inhibition of Pregnancy (empty uteri) (pregnancy in rats; 0.1 mg/animal/day): 75; Complete Inhibition of Pregnancy (empty uteri) N#/N (pregnancy in rats; 0.1 mg/animal/day): 1/4
CC12CC(c3ccc(C=NO)cc3)C3=C4CCC(=O)C=C4CCC3C1CCC2(O)C(F)(F)C(F)(F)F (stereo not drawn) [Example 2, 4-[17β-Hydroxy-17α-(1,1,2,2,2-pentafluoroethyl)-3-oxoestra-4,9-dien-11β-yl]-benzaldehyde-(1E)-oxime]	10%	23%			100	5/5	
4-[17β-Hydroxy-17α-(1,1,1-trifluoroethyloxymethyl)-3-oxoestra-4,9-dien-11β-yl]-benzaldehyde-(1E)-oxime [Example 6]			100	4/4	100	4/4	Complete Inhibition of Pregnancy (empty uteri) (pregnancy in rats; 0.1 mg/animal/day): 0; Complete Inhibition of Pregnancy (empty uteri) N#/N (pregnancy in rats; 0.1 mg/animal/day): 0/4
CC#C[C@]1(O)CC[C@H]2[C@@H]3CCC4=CC(=O)CCC4=C3[C@@H](c3ccc(N(C)C)cc3)C[C@@]21C [RU 486, 11β-(4-Dimethylaminophenyl)-17β-hydroxy-17α-propinyl-estra-4,9-dien-3-one, reference compound]			0	0/5	20	1/5	Complete Inhibition of Pregnancy (empty uteri) (pregnancy in rats; 3 mg/animal/day): 100; Complete Inhibition of Pregnancy (empty uteri) N#/N (pregnancy in rats; 3 mg/animal/day): 5/5
CCNC(=O)ON=Cc1ccc(C2CC3(C)C(CCC3(O)C(F)(F)F)C3CCC4=CC(=O)CCC4=C23)cc1 (stereo not drawn) [compound 3, 4-[17β-Hydroxy-17α-(1,1,1-trifluoromethyl)-3-oxoestra-4,9-dien-11β-yl]benzaldehyde-1(E)-[O-(ethylamino)carbonyl]oxime]	187%	98%					
CCNC(=O)ON=Cc1ccc(C2CC3(C)C(CCC3(O)C(F)(F)C(F)(F)F)C3CCC4=CC(=O)CCC4=C23)cc1 (stereo not drawn) [Example 3, 4-[17β-Hydroxy-17α-(1,1,2,2,2-pentafluoroethyl)-3-oxoestra-4,9-dien-11β-yl]-benzaldehyd-1-one-(1E)-{O-(ethylamino)carbonyl-oxime]	84%	230%			100	4/4	
CC(=O)ON=Cc1ccc(C2CC3(C)C(CCC3(O)C(F)(F)C(F)(F)F)C3CCC4=CC(=O)CCC4=C23)cc1 (stereo not drawn) [compound 5, 4-[17β-Hydroxy-17α-(1,1,2,2,2-pentafluoroethyl)-3-oxoestra-4,9-dien-11β-yl]benzaldehyde-1(E)-O-acetyloxime]	10%	0.5%					
COC1(C(F)(F)C(F)(F)F)CCC2C3CCC4=CC(=O)CCC4=C3C(c3ccc(C=NO)cc3)CC21C (stereo not drawn) [Example 4, 4-[17β-Methoxy-17α-(1,1,2,2,2-pentafluoroethyl)-3-oxoestra-4,9-dien-11β-yl]-benzaldehyde-(1E)-oxime]					50	2/4	
